Reference: ChEMBL document CHEMBL4251583, “Quinoxaline: An insight into the recent pharmacological advances” (Eur J Med Chem, 2018)
Converted amounts (≈) assume the structure as drawn.

Assays:
[1] = Selectivity index, ratio of IC50 for human KB cells to IC50 for Plasmodium falciparum K1 infected in human erythrocytes; type: toxicity, cell-based; settings: read-out: Ratio IC50
Plasmodium falciparum [2] = test: Antiplasmodial activity against Plasmodium falciparum K1 infected in human erythrocytes preincubated for 24 hrs followed by [3H]hypoxanthine addition measured after 24 hrs by scintillation counting; type: functional, organism-based
Plasmodium falciparum [3] = test: Antiplasmodial activity against chloroquine-resistant Plasmodium falciparum FCR-3 infected in human erythrocytes after 3 days by [3H]-hypoxanthine incorporation assay; type: functional, organism-based; settings: FCR-3/Gambia
[4] = Therapeutic index, ratio of CC50 for human MT4 cells to EC50 for HIV1 infected in human MT4 cells; type: toxicity, cell-based; settings: uninfected versus HIV1-infected, read-out: Ratio EC50
Rattus norvegicus [5] = test: Antiinflammatory activity in carrageenan-induced paw edema Wistar rat model assessed as protection against edema formation up to 2000 mg/kg, po measured 3 hrs post dose relative to control; type: functional
Salmonella typhimurium = test: Antibacterial activity against […] ATCC 14028 after 18 hrs by broth microdilution method; type: functional, Salmonella enterica subsp. enterica serovar Typhimurium; settings: Salmonella enterica, ATCC 14028, 18 h
Pseudomonas aeruginosa = test: Antibacterial activity against Pseudomonas aeruginosa ATCC 27853 after 18 hrs by broth microdilution method; type: functional; settings: ATCC 27853, 18 h
Escherichia coli = test: Antibacterial activity against Escherichia coli ATCC 25922 after 18 hrs by broth microdilution method; type: functional; settings: ATCC 25922, 18 h
[6] = system: Mycobacterium tuberculosis; test: Antitubercular activity against Mycobacterium tuberculosis H37Rv after 5 days by MABA method; type: functional; settings: 120 h
Staphylococcus aureus = test: Antibacterial activity against Staphylococcus aureus ATCC 25923 after 18 hrs by broth microdilution method; type: functional; settings: ATCC 25923, 18 h
Proteus vulgaris = test: Antibacterial activity against Proteus vulgaris ATCC 29905 after 18 hrs by broth microdilution method; type: functional; settings: ATCC 29905, 18 h
IMR-32 = test: Antiproliferative activity against human IMR32 cells after 72 hrs by MTT assay; type: functional, cell-based; settings: IMR-32, 72 h
SK-N-SH = test: Antiproliferative activity against human SK-N-SH cells after 72 hrs by MTT assay; type: functional, cell-based
WI-38 = test: Cytotoxicity against human WI38 cells assessed as cell growth inhibition after 48 hrs by SRB assay; type: cell-based; settings: WI-38, 48 h
Rattus norvegicus [7] = test: Antiinflammatory activity in carrageenan-induced paw edema rat model assessed as inhibition of carrageenan-induced edema relative to control; type: functional
Rattus norvegicus [8] = test: Antiinflammatory activity in carrageenan-induced paw edema Fisher 344 rat model assessed as protection against carrageenan-induced edema at 0.01 mmol/kg, ip administered simultaneously with carrageenan measured at 3.5 hrs post carrageenan injection relative to control; type: functional; settings: Fisher 344, ip

## N#Cc1c(-c2ccco2)[n+]([O-])c2ccccc2[n+]1[O-]
[1]
  selectivity ratio: 10.3
Plasmodium falciparum [2]
  IC50: 0.63 µM

## COc1ccc2c(c1)[n+]([O-])c(C#N)c(-c1ccco1)[n+]2[O-]
Plasmodium falciparum [2]
  IC50: 0.28 µM

## COc1cc(/C=C/C(=O)c2c(C)[n+]([O-])c3ccccc3[n+]2[O-])cc(OC)c1OC
Plasmodium falciparum [3]
  IC50: 6.2 µM

## Cc1cc2ncc(=O)n(CC(O)CO)c2cc1C (stereo not given)
[4]
  selectivity ratio: 73

## Cc1nc2ccccc2nc1CCC(=O)N/N=C/c1c[nH]c2ccccc12
Rattus norvegicus [5]
  inhibition (INH): 55.3 - 65.9%

## O=c1[nH]c2ccccc2[nH]/c1=N/N=C/[C@@H]1O[C@H](CO)[C@@H](O)[C@H](O)[C@H]1O
Salmonella typhimurium
  MIC: 2.07 µM (≈ 0.725 µg/mL)
Pseudomonas aeruginosa
  MIC: 2.07 µM (≈ 0.725 µg/mL)
Escherichia coli
  MIC: 2.07 µM (≈ 0.725 µg/mL)
[6]
  MIC: 0.65 µM (≈ 0.228 µg/mL)
Staphylococcus aureus
  MIC: 2.07 µM (≈ 0.725 µg/mL)
Proteus vulgaris
  MIC: 2.07 µM (≈ 0.725 µg/mL)

## O=[N+]([O-])c1ccc(C2OC2c2cnc3ccccc3n2)o1 (stereo not given)
IMR-32
  IC50: 5 µM
SK-N-SH
  IC50: 3.9 µM

## [N-]=[N+]=Nc1nc2cc(Br)ccc2nc1Cl
WI-38
  IC50: > 100 mg/L

## COc1ccc(/C=N/N=c2/[nH]c3ccccc3nc2CCC(=O)O)cc1
Rattus norvegicus [7]
  inhibition (INH): 66.04%

## O=c1[nH]c2ccccc2[nH]/c1=N/N=C/[C@@H]1O[C@H](CO)[C@@H](O[C@H]2O[C@H](CO)[C@@H](O)[C@H](O)[C@H]2O)[C@H](O)[C@H]1O
Salmonella typhimurium
  MIC: 2.07 µM (≈ 1.06 µg/mL)
Pseudomonas aeruginosa
  MIC: 2.07 µM (≈ 1.06 µg/mL)
Escherichia coli
  MIC: 2.07 µM (≈ 1.06 µg/mL)
[6]
  MIC: 0.65 µM (≈ 0.333 µg/mL)
Staphylococcus aureus
  MIC: 2.07 µM (≈ 1.06 µg/mL)
Proteus vulgaris
  MIC: 2.07 µM (≈ 1.06 µg/mL)

## Cc1nc2ccccc2nc1CCC(=O)N/N=C/c1ccc(Cl)cc1
Rattus norvegicus [5]
  inhibition (INH): 55.3 - 65.9%

## COc1ccc2nc(C)c(-c3cc(-c4cc(OC)c(OC)c(OC)c4)nc(N)n3)nc2c1
Rattus norvegicus [8]
  inhibition in vivo at 10 µmol/kg: 41%

## Brc1ccc2nc(N3CCCCC3)c3nnnn3c2c1
WI-38
  IC50: > 100 mg/L

## Cc1c(C(=O)/C=C/c2ccc3ccccc3c2)[n+]([O-])c2ccccc2[n+]1[O-]
Plasmodium falciparum [3]
  IC50: 5.8 µM

## Cc1nc2ccccc2nc1CCC(=O)N/N=C/c1ccc(N(C)C)cc1
Rattus norvegicus [5]
  inhibition (INH): 55.3 - 65.9%

## COc1ccc(/C=N/N=c2/[nH]c3ccc(C)cc3nc2CCC(=O)O)cc1
Rattus norvegicus [7]
  inhibition (INH): 69.85%

## O=c1[nH]c2ccccc2[nH]/c1=N/N=C/[C@@H]1O[C@H](CO)[C@@H](O[C@@H]2O[C@H](CO)[C@H](O)[C@H](O)[C@H]2O)[C@H](O)[C@H]1O
Salmonella typhimurium
  MIC: 2.07 µM (≈ 1.06 µg/mL)
Pseudomonas aeruginosa
  MIC: 2.07 µM (≈ 1.06 µg/mL)
Escherichia coli
  MIC: 2.07 µM (≈ 1.06 µg/mL)
[6]
  MIC: 0.65 µM (≈ 0.333 µg/mL)
Staphylococcus aureus
  MIC: 2.07 µM (≈ 1.06 µg/mL)
Proteus vulgaris
  MIC: 2.07 µM (≈ 1.06 µg/mL)

## Cc1nc2ccccc2nc1CCC(=O)N/N=C/c1ccco1
Rattus norvegicus [5]
  inhibition (INH): 55.3 - 65.9%

## O=c1[nH]c2ccccc2[nH]/c1=N/N=C/[C@@H]1O[C@H](CO)[C@@H](O)[C@H](O)[C@@H]1O
Salmonella typhimurium
  MIC: 2.07 µM (≈ 0.725 µg/mL)
Pseudomonas aeruginosa
  MIC: 2.07 µM (≈ 0.725 µg/mL)
Escherichia coli
  MIC: 2.07 µM (≈ 0.725 µg/mL)
[6]
  MIC: 0.65 µM (≈ 0.228 µg/mL)
Staphylococcus aureus
  MIC: 2.07 µM (≈ 0.725 µg/mL)
Proteus vulgaris
  MIC: 2.07 µM (≈ 0.725 µg/mL)

## Cc1nc2ccccc2nc1CCC(=O)N/N=C/c1ccc(O)cc1
Rattus norvegicus [5]
  inhibition (INH): 55.3 - 65.9%

## Cc1nc2ccccc2nc1CCC(=O)N/N=C/c1ccccc1
Rattus norvegicus [5]
  inhibition (INH): 55.3 - 65.9%

## Brc1ccc2c(c1)n1nnnc1c1nnnn21
WI-38
  IC50: > 100 mg/L

## Brc1ccc2nc(N3CCOCC3)c3nnnn3c2c1
WI-38
  IC50: > 100 mg/L

## CC(C)Cc1ccc(C(C)C(=O)O)cc1 (stereo not given) [IBUPROFEN]
Rattus norvegicus [5]
  inhibition (INH): 73.5%

## COc1ccc2c(c1)c(CC(=O)O)c(C)n2C(=O)c1ccc(Cl)cc1 [INDOMETHACIN]
Rattus norvegicus [7]
  inhibition (INH): 79.5%
Rattus norvegicus [8]
  inhibition in vivo at 10 µmol/kg: 47%

## c1ccc2nccnc2c1 [QUINOXALINE]
IMR-32
  IC50: 13 µM
SK-N-SH
  IC50: 4.6 µM
